# Data reported in ChEMBL document CHEMBL1158672, “Rubrobramide, a cytotoxic and phytotoxic metabolite from Cladobotyrum rubrobrunnescens” (1998).
# Active and inactive are the calls of the source. No cut-off for these calls is given here.
# Assays:
# Meloidogyne incognita [1] = assay: Nematicidal activity against Meloidogyne incognita up to 100 ug/mL; format: functional, organism-based
# HL-60 = assay: Cytotoxicity against human HL60 cells up to 100 ug/mL; format: functional, cell-based
# HeLa S3 = assay: Cytotoxicity against human HeLaS3 cells up to 100 ug/mL; format: functional, cell-based
# L1210 = assay: Antiproliferative activity against mouse L1210 cells at 50 ug/mL; format: functional
# Lepidium sativum = assay: Phytotoxicity against Lepidium sativum assessed as inhibition of seedling germination at 100 ug/mL; format: functional; parameters: scale not given: the % may be the effect or the level left
# Setaria italica = assay: Phytotoxicity against Setaria italica assessed as inhibition of seedling germination at 100 ug/mL; format: functional; parameters: scale not given: the % may be the effect or the level left
# Meloidogyne incognita [2] = assay: Nematicidal activity against Meloidogyne incognita; format: functional; settings: read-out: LD50 (the source's name)
SMILES,Activity (Meloidogyne incognita [1]),Activity (HL-60),Activity (HeLa S3),Activity (L1210) [%],Activity (Lepidium sativum) [%],Activity (Setaria italica) [%],LC50 (Meloidogyne incognita [2]) [µg/mL]
CC(C)C[C@]12NC(=O)[C@@]3(O)C(=O)C[C@](C)(O[C@H]31)O2 [RUBROBRAMIDE],inactive,inactive,inactive,50,50,50,
COc1c(-c2ccco2)coc(=O)c1C [CLADOBOTRIN],,,,,,,100
